Measurements taken from patent publication US7659273B2, “Composition for accelerating bone fracture healing” (Mitsubishi Tanabe Pharma Corporation, priority 2001, dated 2010).

Columns and labels:
fibula fracture region = assay: Acceleration of fracture healing in normal rat, Compound (1) microspheres (Experimental Example 1); type: in vivo; conditions: normal rats, Example 2-(1) microspheres, 6 weeks after suturing; for Fibula Bone Mineral Density: at cutting site; for Fibula Bone Mineral Density / Fibula Bone Mineral Content: DXA at fracture region; for Breaking Energy / Breaking force: three-point bending test
Procedure: CD (SD) IGS rats (Charles River Japan, Inc.; male; 7-week-old) were housed for seven days at room temperature (23±2° C.) and 40-70% humidity. During the housing period, the rats were free to access commercially available food (from Oriental Bio; CE-2).
Under ether anesthesia, the left-lower legs of rats were shaved and sterilized with 70% aqueous ethanol, fibulas were exposed with scissors and cut with nail scissors (Natsume Seisakusyo; B17). The cut sections of the fibula were re-matched with tweezers. For the test groups (20 rats/group), the drug-containing microspheres prepared in Example 2-(1), which contains 0.1 or 0.5 mg of Compound (1), were placed around the cutting site of each rat using spatula followed by suturing with silk thread. For the control group (20 rats/group), the same amount of drug-free microspheres prepared in Control Example 1-(1) were placed around the cutting site using spatula followed by suturing with silk thread. Following the suturing, animals of every group were sterilized with 70% aqueous ethanol. At six weeks after the suturing, under ether anesthesia, 10 rats from each group were sacrificed by laparotomy with bleeding and the fibulas were excised.
The fibula excised at 6 weeks after suturing was subjected to DXA bone densitometer (Aloka; DCS-600) to determine bone mineral density and bone mineral content at fracture region (scanning width: 1 mm).
The volume of fibula excised 6 weeks after suturing was determined using Plethysmometer (Muromachi Kikai Co., Ltd.; TK-101).
The fibula excised at 6 weeks after suturing was subjected to a three-point bending test with bone strength tester (from Muromachi Kikai Co., Ltd.; TK-252C) to determine bone strength. Briefly, the fibula was supported by two supports apart from each other by 8 mm and the cut section was positioned at the middle of these supports, i.e., 4 mm apart from the respective two supports. Loading (3 mm/minute) from upper direction was kept on the middle point (fracture section) of fibula until fibula begins to fracture. The maximum pressure necessary to break the bone was defined as the breaking force and the total energy spent to break the bone was defined as the breaking energy.

[1] = test system: rabbit costicartilage cells; assay: Cartilage matrix (proteoglycan) production, Alcian blue staining (Experimental Examples 3 and 4); type: cell-based; conditions: summary of Tables 10 and 11
From the text: Costicartilages were isolated from NZ line rabbit (Kitayama Labes., Co Ltd.; male; 4-week-old) and soaked into Hank's balanced salt solution (calcium- and magnesium-free; LifeTech Co., Ltd.; hereinafter, referred to as “HBSS”). One costicartilage and one costa were excised together, the adipose tissue and the muscle tissue were removed and then, the proliferating chondrocyte layer of costicartilage was excised. The collected proliferating chondrocyte layer was cut into sections with a surgical knife (FEATHER Safety Razor Co., Ltd.) and the all proliferating chondrocyte layer sections from 4 rabbits were combined in a centrifuge tube. To the centrifuge tube was added 40 ml of HBSS (pH 7.2) supplied with 0.1% tetrasodium ethylenediamine tetraacetate to obtain suspension of the proliferating chondrocyte layer sections, which was shaken at 37° C. for 20 minutes and centrifuged (1500 rpm, 10 minutes). The supernatant was aspirated off, and 40 ml of HBSS (pH 7.2) supplied with 0.2% trypsin was added to the tube to suspend the precipitates and shaken at 37° C. for 1 hour. The tube was centrifuged (1500 rpm, 10 minutes), and the supernatant was aspirated off. The precipitates were washed twice with HBSS, suspended in 100 ml of HBSS supplied with 0.1% collagenase (Wako Pure Chemical Industries, Ltd., 034-10533) and shaken at 37° C. for 3 hours. The content of the tube was passed through the Cell Strainer (pore size 40 μm) and the filtrate was divided into four centrifuge tubes. To each of all four tubes was added 40 ml of medium (α-MEM, LifeTech Co., Ltd.), and the tubes were centrifuged (1500 rpm, 10 minutes). The supernatant was aspirated off, and the resultant precipitates were collected in one tube with Pipetman. After addition of 40 ml of the same medium, the tube was re-centrifuged (1500 rpm, 10 minutes). Washing procedure comprising addition of medium followed by centrifugation was repeated additional three times. The precipitates were suspended in the same medium to give an about 5 ml suspension, and the cell number was counted.
The suspension of costicartilage cell described above was added to 24-well plate at 50,000 cells per well (day 1). […]
After removing the medium, cells in each well were fixed by addition of 1 ml of neutral buffer containing 4% paraformaldehyde and incubation for 30 minutes at room temperature. […] Absorbance at 620 nm was measured, and cartilage matrix amount (proteoglycan production amount) in each well was estimated, and proteoglycan production rate (%) of each test compound for vehicle (100%) was calculated.
The cartilage matrix (proteoglycan) production was determined using other compounds (compounds (52)-(55) and Compound (2) for comparison) in exactly the same manner as Experimental Example 3 above.

[2] = test system: cultured rabbit costicartilage cells; assay: Calcification of chondrocyte (Experimental Example 5); type: cell-based; conditions: 10^−4 M; 4 week cultivation; silver nitrate and Alizarin Red staining; FIG. 1
From the text: Costicartilages were isolated from NZ line rabbit (Kitayama Labes., Co Ltd.; male; 4-week-old) and soaked into Hank's balanced salt solution (calcium- and magnesium-free; LifeTech Co., Ltd.; hereinafter, referred to as “HBSS”). One costicartilage and one costa were excised together, the adipose tissue and the muscle tissue were removed and then, the proliferating chondrocyte layer of costicartilage was excised. The collected proliferating chondrocyte layer was cut into sections with a surgical knife (FEATHER Safety Razor Co., Ltd.) and the all proliferating chondrocyte layer sections from 4 rabbits were combined in a centrifuge tube. To the centrifuge tube was added 40 ml of HBSS (pH 7.2) supplied with 0.1% tetrasodium ethylenediamine tetraacetate to obtain suspension of the proliferating chondrocyte layer sections, which was shaken at 37° C. for 20 minutes and centrifuged (1500 rpm, 10 minutes). The supernatant was aspirated off, and 40 ml of HBSS (pH 7.2) supplied with 0.2% trypsin was added to the tube to suspend the precipitates and shaken at 37° C. for 1 hour. The tube was centrifuged (1500 rpm, 10 minutes), and the supernatant was aspirated off. […] The precipitates were suspended in the same medium to give an about 5 ml suspension, and the cell number was counted. […]

[3] = test system: backbone, femur and cortical bone of mouse; conditions: daily subcutaneous injection; cited from earlier work

CCOc1cc2cc(CO)c(CO)c(-c3ccn(CCOC)c(=O)c3)c2cc1OCC [Compound (1)]
Fibula Bone Mineral Density (fibula fracture region; drug content 0.1 mg): 36.77 ± 1.52 mg/cm^2
Fibula Bone Volume (fibula fracture region; drug content 0.1 mg): 68.1 ± 2.9 µL
Fibula Bone Mineral Content (fibula fracture region; drug content 0.1 mg): 14.27 ± 0.76 mg
Breaking Energy (fibula fracture region; drug content 0.1 mg): 4.37 ± 0.71 mJ
Breaking force (fibula fracture region; drug content 0.1 mg): 19.8 ± 2.14 N
Fibula Bone Mineral Density (fibula fracture region; drug content 0.5 mg): 40.05 ± 1.34 mg/cm^2
Fibula Bone Volume (fibula fracture region; drug content 0.5 mg): 77.2 ± 2.9 µL
Fibula Bone Mineral Content (fibula fracture region; drug content 0.5 mg): 15.20 ± 0.82 mg
Breaking Energy (fibula fracture region; drug content 0.5 mg): 6.44 ± 1.06 mJ
Breaking force (fibula fracture region; drug content 0.5 mg): 23.0 ± 1.68 N
cartilage matrix (proteoglycan) production promoting effect (in words) [1]: remarkable matrix production promoting effect
calcium deposition / calcification enhancement [2]: calcium deposition was clearly observed

COc1cc2c(cc1OC)C(c1ccnc(-n3ccc4c(OCCN5CCOCC5)cccc4c3=O)c1)=N[C@H](CO)C2 [Compound (52)]
cartilage matrix (proteoglycan) production promoting effect (in words) [1]: remarkable matrix production promoting effect

COc1ccc(C2CNC(=O)C2)cc1OC1CCCC1 (stereo not drawn) [Rolipram]
bone mineral density of the backbone and the femur [3]: increase of bone mineral density of the backbone and the femur
hyperplasia of cortical bone [3]: hyperplasia of cortical bone

COc1cc2cc(CO)nc(-c3ccnc(-n4nc(-c5nccs5)c5ccccc5c4=O)c3)c2cc1OC [Compound (53)]
cartilage matrix (proteoglycan) production promoting effect (in words) [1]: remarkable matrix production promoting effect

CC(=O)CCCCn1c(=O)c2c(ncn2C)n(C)c1=O [Pentoxifylline]
bone mineral density of the backbone and the femur [3]: increase of bone mineral density of the backbone and the femur
hyperplasia of cortical bone [3]: hyperplasia of cortical bone
